PMC11397358, “Cytotoxic Activity of Novel GnRH Analogs Conjugated with Mitoxantrone in Ovarian Cancer Cells” (Molecules, 2024)

Test system: SKOV-3 cells
Experiment: Annexin V / propidium iodide apoptosis assay by flow cytometry
Assay type: cell-based, human
Conditions: for Apoptotic Cells (%) Mean, Day2 / Apoptotic Cells (%) Mean, Day3 / Apoptotic Cells (%) Mean, Day4: 1 μM, Q1 and Q2, mean of three experiments, * p < 0.01 vs untreated; for Apoptotic Cells (%) Mean, Day2 / percentage of apoptotic cells (Q1, Q2 quadrants), day 2: 2 days; for Apoptotic Cells (%) Mean, Day3 / percentage of apoptotic cells (Q1, Q2 quadrants), day 3: 3 days; for Apoptotic Cells (%) Mean, Day4 / percentage of apoptotic cells (Q1, Q2 quadrants), day 4: 4 days; for percentage of apoptotic cells (Q1, Q2 quadrants), day 2 / percentage of apoptotic cells (Q1, Q2 quadrants), day 3 / percentage of apoptotic cells (Q1, Q2 quadrants), day 4: 1 μΜ, 37 °C, representative experiment (Figure 5)
Source text: We next evaluate the abilities of Con-3 and Con-7 at concentrations of 1 μΜ to induce cell death by determining the percentages of live, apoptotic and necrotic cells after treatment of SKOV-3 cells with the GnRH conjugates. As shown in Figure 5 and Figures S1–S3 on day 2, the majority of SKOV-3 cells were viable (Q4 quadrant), treated either with Con-3, Con-7 or mitoxantrone, whereas the percentage of apoptotic cells (late or early apoptotic) (Q1, Q2 quadrants) was only 10.1%, 10.87% and 13.1% after treatment with Con-3, Con-7 or mitoxantrone, respectively. […] Cell viability further decreased on day 4 with a concomitant increase in apoptosis. Specifically, the percentage of apoptotic cells was 53.5%, 59.6% and 54.3% after treatment with Con-3, Con-7 or mitoxantrone (Figure 5 and Figures S7–S9). In all phases, the percentage of the necrotic and late apoptotic cells (Q3 quadrant) was very small.
Figure 5 Determination of viability, apoptosis, or necrosis of SKOV-3 cells after their treatment with 1 μM Con-3, Con-7, or mitoxantrone for 2, 3, and 4 days at 37 °C. At the end of the incubation the cells were further incubated in binding buffer supplied by Biotium, (CF488A Apoptosis Detection kit) and analyzed on a flow cytometer (excitation 488 nm), in the FITC channel (filter 530 nm) for detection of the Annexin V-positive cellsand in the propidium iodide, or PI, channel (filter 616 nm) for detection of the PI-positive cells. The figures are from a representative experiment performed three times with similar results. A higher resolution of the images in Figure 5 is provided in the Supplementary Material (Figures S1–S9). TEXT PRINTED IN THE PICTURE: Con-3: Q3: 4,19 (Day 2); Q2: 7,12 (Day 2); Q4: 85,7 (Day 2); Q1: 2,98 (Day 2); Q3: 5,31 (Day3); Q2: 19,5 (Day3); Q4: 58,0 (Day3); Q1: 17,1 (Day3); Q3: 3,54 (Day4); Q2: 17,1 (Day4); Q4: 43,0 (Day4); Q1: 36,4 (Day4) | Con-7: Q3: 6,31 (Day 2); Q2: 7,74 (Day 2); Q4: 82,8 (Day 2); Q1: 3,13 (Day 2); Q3: 8,11 (Day3); Q2: 19,8 (Day3); Q4: 56,8 (Day3); Q1: 15,3 (Day3); Q3: 3,48 (Day4); Q2: 19,7 (Day4); Q4: 36,9 (Day4); Q1: 39,9 (Day4) | Mitoxantrone: Q3: 6,49 (Day 2); Q2: 9,40 (Day 2); Q4: 80,4 (Day 2); Q1: 3,67 (Day 2); Q3: 7,13 (Day3); Q2: 18,9 (Day3); Q4: 61,0 (Day3); Q1: 13,1 (Day3); Q3: 2,72 (Day4); Q2: 17,3 (Day4); Q4: 43,0 (Decimal sign as read) (Day4); Q1: 37,0 (Day4) DOUBTS OF THE COPYIST ABOUT THIS PICTURE: All quadrant values: the print is very small, and the decimal sign may be a comma or a point in every value / Con-3, Day 2, Q4: 85,7 or 86,7 / Con-3, Day 2, Q1: 2,98 or 2,96 / Con-3, Day3, Q3: 5,31 or 6,31 / Con-3, Day3, Q2: 19,5 or 19,6 / Con-3, Day3, Q4: 58,0 or 56,0 / Con-3, Day4, Q3: 3,54 or 3,64 / Con-3, Day4, Q1: 36,4 or 38,4 / Con-7, Day 2, Q3: 6,31 or 8,31 / Con-7, Day 2, Q4: 82,8 or 82,6 / Con-7, Day 2, Q1: 3,13 or 3,15 / Con-7, Day3, Q3: 8,11 or 6,11 / Con-7, Day3, Q2: 19,8 or 19,6 / Con-7, Day3, Q4: 56,8 or 58,8 / Con-7, Day3, Q1: 15,3 or 15,8 / Con-7, Day4, Q3: 3,48 or 3,46 / Con-7, Day4, Q4: 36,9 or 38,9 / Con-7, Day4, Q1: 39,9 or 38,9 / Mitoxantrone, Day 2, Q3: 6,49 or 8,49 / Mitoxantrone, Day 2, Q2: 9,40 or 8,40 / Mitoxantrone, Day 2, Q4: 80,4 or 60,4 / Mitoxantrone, Day 2, Q1: 3,67 or 3,87 / Mitoxantrone, Day3, Q2: 18,9 or 16,9 / Mitoxantrone, Day3, Q4: 61,0 or 81,0 / Mitoxantrone, Day3, Q1: 13,1 or 15,1 […]
SKOV-3 cells were seeded into 12-well plates at a density of 50,000 cells/well and incubated overnight in DMEM/F12 (1:1) containing 3.15 g/L glucose and 10% BCS, at 37 °C and 5% CO2. At the end of the incubation, the culture medium was replaced with a fresh one containing 3.15 g/L glucose and 2% BCS, with or without GnRH analogs or mitoxantrone at a concentration of 1 μΜ, and the cells were further incubated at 37 °C and 5% CO2 for 2, 3 and 4 days. […]

CCNC(=O)[C@@H]1CCCN1C(=O)[C@H](CCCNC(=N)N)NC(=O)[C@H](CC(C)C)NC(=O)[C@@H](CCCCNC(=O)CCCCCNC(=O)CCSSCC(=O)OCCNCCNc1ccc(NCCNCCO)c2c1C(=O)c1c(O)ccc(O)c1C2=O)NC(=O)[C@H](Cc1ccc(O)cc1)NC(=O)[C@H](CO)NC(=O)[C@H](Cc1c[nH]c2ccccc12)NC(=O)[C@H](Cc1c[nH]cn1)NC(=O)[C@@H]1CCC(=O)N1 [Con-7]
Apoptotic Cells (%) Mean, Day2: 13.81 * %
Apoptotic Cells (%) Mean, Day3: 33.53 * %
Apoptotic Cells (%) Mean, Day4: 51.17 * %
percentage of apoptotic cells (Q1, Q2 quadrants), day 2: 10.87%
percentage of apoptotic cells (Q1, Q2 quadrants), day 3: 35.1%
percentage of apoptotic cells (Q1, Q2 quadrants), day 4: 59.6%

CCNC(=O)[C@@H]1CCCN1C(=O)[C@H](CCCNC(=N)N)NC(=O)[C@H](CC(C)C)NC(=O)[C@@H](CSSCCC(=O)OCCNCCNc1ccc(NCCNCCO)c2c1C(=O)c1c(O)ccc(O)c1C2=O)NC(=O)[C@H](Cc1ccc(O)cc1)NC(=O)[C@H](CO)NC(=O)[C@H](Cc1c[nH]c2ccccc12)NC(=O)[C@H](Cc1c[nH]cn1)NC(=O)[C@@H]1CCC(=O)N1 [Con-3]
Apoptotic Cells (%) Mean, Day2: 13.68 * %
Apoptotic Cells (%) Mean, Day3: 35.00 * %
Apoptotic Cells (%) Mean, Day4: 49.50 * %
percentage of apoptotic cells (Q1, Q2 quadrants), day 2: 10.1%
percentage of apoptotic cells (Q1, Q2 quadrants), day 3: 36.6%
percentage of apoptotic cells (Q1, Q2 quadrants), day 4: 53.5%

O=C1c2c(O)ccc(O)c2C(=O)c2c(NCCNCCO)ccc(NCCNCCO)c21 [mitoxantrone]
Apoptotic Cells (%) Mean, Day2: 14.26 * %
Apoptotic Cells (%) Mean, Day3: 33.60 * %
Apoptotic Cells (%) Mean, Day4: 50.10 * %
percentage of apoptotic cells (Q1, Q2 quadrants), day 2: 13.1%
percentage of apoptotic cells (Q1, Q2 quadrants), day 3: 32%
percentage of apoptotic cells (Q1, Q2 quadrants), day 4: 54.3%
